The target of assay [1] is T1, FPR2 (Homo sapiens, UniProt P25090).
T1 construct: expressed in transfected cells; host or cells: RBL cells (RBL-FPR2)
T1 sequence (P25090 1-351): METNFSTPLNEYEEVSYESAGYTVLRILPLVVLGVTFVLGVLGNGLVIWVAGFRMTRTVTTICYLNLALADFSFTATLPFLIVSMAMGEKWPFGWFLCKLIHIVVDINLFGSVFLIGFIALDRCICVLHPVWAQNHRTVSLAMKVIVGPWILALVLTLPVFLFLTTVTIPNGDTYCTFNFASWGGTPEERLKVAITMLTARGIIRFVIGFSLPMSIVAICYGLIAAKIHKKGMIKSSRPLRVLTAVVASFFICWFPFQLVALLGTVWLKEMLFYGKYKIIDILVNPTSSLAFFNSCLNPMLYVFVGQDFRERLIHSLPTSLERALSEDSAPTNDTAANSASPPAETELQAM
As to the kind of experiment: Change in calcium activity by peptide (Fura-2) in RBL cells overexpressing FPR2. It counts as cell-based. As to conditions: calcium activity (Fura-2), graded per Table 3, read-out: EC50 for [Ca^2+] FPR2. The method, boiled down:
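Rat basophilic leukemia cells overexpressing FPR2 loaded with Fura-2 (37 °C 1 h, then RT 30 min dark); peptides (0.5 mM stocks in water or 50% DMSO) diluted in HBSS + 20 mM HEPES and added on a plate reader, intracellular Ca2+ change recorded.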

Assay [2] concerns the target T2, FPR1 (Homo sapiens, UniProt P21462).
T2 sequence (P21462 1-350): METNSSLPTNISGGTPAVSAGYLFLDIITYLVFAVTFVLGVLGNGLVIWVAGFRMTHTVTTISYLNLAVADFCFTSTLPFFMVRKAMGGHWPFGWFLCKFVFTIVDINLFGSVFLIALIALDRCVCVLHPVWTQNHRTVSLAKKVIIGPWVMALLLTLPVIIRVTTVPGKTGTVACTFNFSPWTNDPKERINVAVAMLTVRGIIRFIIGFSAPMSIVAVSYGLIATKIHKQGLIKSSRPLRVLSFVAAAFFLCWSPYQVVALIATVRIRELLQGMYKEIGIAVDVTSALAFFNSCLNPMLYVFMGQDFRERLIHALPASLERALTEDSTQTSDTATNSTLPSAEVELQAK
As to the kind of experiment: Change in calcium activity by peptide, FPR1 activation effect. As to conditions: calcium activity (Fura-2), graded per Table 3, read-out: EC50 for [Ca^2+] FPR1. It counts as cell-based. The essentials: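 Cells plated at 3×10^5 per well the day before were loaded with Fura-2 for 1 h at 37 °C, then kept 30 min in the dark at room temperature. Peptide-evoked calcium changes were recorded on a FlexStation 3.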

Peptide text beside a SMILES is read from it.

For `CSCC[C@H](N)C(=O)N[C@@H](CCCNC(=N)N)C(=O)N[C@@H](Cc1ccc(O)cc1)C(=O)N[C@@H](Cc1c[nH]c2ccccc12)C(=O)N[C@@H](Cc1ccc(O)cc1)C(=O)N[C@H](CCSC)C(N)=O` [Peptide 85] (HELM PEPTIDE1{M.R.Y.W.Y.[dM].[am]}$$$$V2.0), the EC50 in assay [1] is less than 0.01 µM; in assay [2], more than 10 µM.
For `CSCC[C@H](NC(C)=O)C(=O)N[C@@H](CCCNC(=N)N)C(=O)N[C@@H](Cc1ccc(O)cc1)C(=O)N[C@@H](CCCNC(=N)N)C(=O)N[C@@H](Cc1ccc(O)cc1)C(=O)N[C@H](CCSC)C(N)=O` [Peptide 49] (HELM PEPTIDE1{[ac].M.R.Y.R.Y.[dM].[am]}$$$$V2.0) the same measures were 0.011 to 0.1 µM and more than 10 µM.
For `CC[C@H](C)[C@H](N)C(=O)N[C@@H](CCCCN)C(=O)N[C@@H](CCCCN)C(=O)N[C@@H](Cc1c[nH]c2ccccc12)C(=O)N[C@@H](CCSC)C(=O)N[C@H](CCSC)C(N)=O` [Peptide 130] (HELM PEPTIDE1{I.K.K.W.M.[dM].[am]}$$$$V2.0) the same measures were 0.011 to 0.1 µM and more than 10 µM.
Take `CSCC[C@@H](NC(=O)[C@H](Cc1ccc(O)cc1)NC(=O)[C@H](CCCCN)NC(=O)[C@H](Cc1ccc(O)cc1)NC(=O)[C@H](CCCNC(=N)N)NC(=O)[C@H](Cc1c[nH]c2ccccc12)NC(=O)[C@@H](N)CCCNC(=N)N)C(N)=O` [Peptide 32] (HELM PEPTIDE1{R.W.R.Y.K.Y.[dM].[am]}$$$$V2.0): the EC50 in assay [1] is 0.011 to 0.1 µM; in assay [2], more than 10 µM.
For `CCCCCCCC(=O)N[C@@H](Cc1c[nH]cn1)C(=O)N[C@@H](CCCCN)C(=O)N[C@@H](Cc1ccc(O)cc1)C(=O)N[C@@H](CCCCN)C(=O)N1CCC[C@H]1C(=O)N[C@H](CCSC)C(N)=O` [Peptide 149] (HELM PEPTIDE1{[CCCCCCCC(=O)[*:2]].H.K.Y.K.P.[dM].[am]}$$$$V2.0) the same measures were less than 0.01 µM and more than 10 µM.
With `CSCC[C@H](NC(=O)[C@H](CCCNC(=N)N)NC(C)=O)C(=O)N[C@@H](CCCNC(=N)N)C(=O)N[C@@H](Cc1ccc(O)cc1)C(=O)N[C@@H](Cc1ccc(O)cc1)C(=O)N[C@H](C(=O)N[C@H](CCSC)C(N)=O)C(C)C` [Peptide 98] (HELM PEPTIDE1{[ac].R.M.R.Y.Y.V.[dM].[am]}$$$$V2.0), the EC50 in assay [1] is less than 0.01 µM; in assay [2], 1 to 10 µM.
Regarding `CCCC(=O)N[C@@H](CCSC)C(=O)N[C@@H](CCCNC(=N)N)C(=O)N[C@@H](Cc1ccc(O)cc1)C(=O)N[C@@H](CCCCN)C(=O)N[C@H](C(=O)N[C@H](CCSC)C(N)=O)C(C)C` [Peptide 15] (HELM PEPTIDE1{[CCCC(=O)[*:2]].M.R.Y.K.V.[dM].[am]}$$$$V2.0), the EC50 in assay [1] was less than 0.01 µM; in assay [2] it was more than 10 µM.
Regarding `CSCC[C@H](NC(=O)[C@@H](N)Cc1c[nH]cn1)C(=O)N[C@@H](CCCNC(=N)N)C(=O)N[C@@H](Cc1ccc(O)cc1)C(=O)N[C@@H](CCCCN)C(=O)N[C@@H](Cc1ccc(O)cc1)C(=O)N[C@H](CCSC)C(N)=O` [Peptide 44] (HELM PEPTIDE1{H.M.R.Y.K.Y.[dM].[am]}$$$$V2.0), the results for the EC50 in assay [1] and in assay [2] were 0.011 to 0.1 µM and more than 10 µM, respectively.
For `CC[C@H](C)[C@H](N)C(=O)N[C@@H](CCCCN)C(=O)N[C@@H](Cc1ccc(O)cc1)C(=O)N[C@@H](CCCCN)C(=O)N[C@H](C(=O)N[C@H](CCSC)C(N)=O)C(C)C` [Peptide 134] (HELM PEPTIDE1{I.K.Y.K.V.[dM].[am]}$$$$V2.0) the same measures were less than 0.01 µM and more than 10 µM.
With `CSCC[C@H](NC(=O)[C@@H]1CCCN1)C(=O)N[C@@H](CCCCN)C(=O)N[C@@H](Cc1ccc(O)cc1)C(=O)N[C@@H](CCCCN)C(=O)N[C@H](C(=O)N[C@H](CCSC)C(N)=O)C(C)C` [Peptide 25] (HELM PEPTIDE1{P.M.K.Y.K.V.[dM].[am]}$$$$V2.0), the concentration giving a half-maximal response (EC50) is less than 0.01 µM in assay [1] and more than 10 µM in assay [2].
As to `CC[C@H](C)[C@H](NC(C)=O)C(=O)N[C@@H](CCCCN)C(=O)N[C@@H](Cc1ccc(O)cc1)C(=O)N[C@@H](CCCCN)C(=O)N[C@H](C(=O)N[C@H](CCSC)C(N)=O)C(C)C` [Peptide 135] (HELM PEPTIDE1{[ac].I.K.Y.K.V.[dM].[am]}$$$$V2.0), the EC50 was less than 0.01 µM in assay [1] and more than 10 µM in assay [2].
For `CCCC(=O)N1CCC[C@H]1C(=O)N[C@@H](CCSC)C(=O)N[C@@H](CCCNC(=N)N)C(=O)N[C@@H](Cc1ccc(O)cc1)C(=O)N[C@@H](CCCCN)C(=O)N[C@@H](Cc1ccc(O)cc1)C(=O)N[C@H](CCSC)C(N)=O` [Peptide 47] (HELM PEPTIDE1{[CCCC(=O)[*:2]].P.M.R.Y.K.Y.[dM].[am]}$$$$V2.0) the same measures were less than 0.01 µM and more than 10 µM.
For `CSCC[C@@H](NC(=O)[C@@H]1CCCN1C(=O)[C@H](Cc1ccc(O)cc1)NC(=O)[C@H](Cc1ccc(O)cc1)NC(=O)[C@H](CCCNC(=N)N)NC(=O)[C@H](Cc1c[nH]c2ccccc12)NC(=O)[C@H](CCCNC(=N)N)NC(C)=O)C(N)=O` [Peptide 121] (HELM PEPTIDE1{[ac].R.W.R.Y.Y.P.[dM].[am]}$$$$V2.0) the same measures were less than 0.01 µM and 0.101 to 1 µM.
For `CSCC[C@H](NC(C)=O)C(=O)N[C@@H](CCCNC(=N)N)C(=O)N[C@@H](Cc1ccc(O)cc1)C(=O)N[C@@H](CCCCN)C(=O)N[C@H](C(=O)N[C@H](CCSC)C(N)=O)C(C)C` [Peptide 14] (HELM PEPTIDE1{[ac].M.R.Y.K.V.[dM].[am]}$$$$V2.0) the same measures were less than 0.01 µM and 1 to 10 µM.
With `CSCC[C@H](NC(C)=O)C(=O)N[C@@H](CCCNC(=N)N)C(=O)N[C@@H](Cc1ccc(O)cc1)C(=O)N[C@@H](Cc1c[nH]c2ccccc12)C(=O)N[C@@H](Cc1ccc(O)cc1)C(=O)N[C@H](CCSC)C(N)=O` [Peptide 86] (HELM PEPTIDE1{[ac].M.R.Y.W.Y.[dM].[am]}$$$$V2.0), the EC50 was less than 0.01 µM in assay [1] and more than 10 µM in assay [2].
On to `CSCC[C@H](NC(=O)[C@H](Cc1c[nH]cn1)NC(C)=O)C(=O)N[C@@H](CCCNC(=N)N)C(=O)N[C@@H](Cc1ccc(O)cc1)C(=O)N[C@@H](CCCCN)C(=O)N1CCC[C@H]1C(=O)N[C@H](CCSC)C(N)=O` [Peptide 59] (HELM PEPTIDE1{[ac].H.M.R.Y.K.P.[dM].[am]}$$$$V2.0), for which the EC50 in assay [1] was less than 0.01 µM; in assay [2] it was more than 10 µM.
Regarding `CSCC[C@H](NC(=O)[C@@H]1CCCN1C(C)=O)C(=O)N[C@@H](CCCNC(=N)N)C(=O)N[C@@H](Cc1ccc(O)cc1)C(=O)N[C@@H](CCCCN)C(=O)N1CCC[C@H]1C(=O)N[C@H](CCSC)C(N)=O` [Peptide 63] (HELM PEPTIDE1{[ac].P.M.R.Y.K.P.[dM].[am]}$$$$V2.0), the EC50 in assay [1] is less than 0.01 µM; in assay [2], more than 10 µM.
For `CSCC[C@H](NC(C)=O)C(=O)N[C@@H](CCCNC(=N)N)C(=O)N[C@@H](Cc1ccc(O)cc1)C(=O)N[C@@H](Cc1c[nH]c2ccccc12)C(=O)N1CCC[C@H]1C(=O)N[C@H](CCSC)C(N)=O` [Peptide 111] (HELM PEPTIDE1{[ac].M.R.Y.W.P.[dM].[am]}$$$$V2.0) the same measures were less than 0.01 µM and 1 to 10 µM.
For `CCCC(=O)N[C@@H](Cc1c[nH]cn1)C(=O)N[C@@H](CCSC)C(=O)N[C@@H](CCCNC(=N)N)C(=O)N[C@@H](Cc1ccc(O)cc1)C(=O)N[C@@H](CCCCN)C(=O)N1CCC[C@H]1C(=O)N[C@H](CCSC)C(N)=O` [Peptide 60] (HELM PEPTIDE1{[CCCC(=O)[*:2]].H.M.R.Y.K.P.[dM].[am]}$$$$V2.0) the same measures were less than 0.01 µM and more than 10 µM.
For `CCCC(=O)N[C@H](C(=O)N[C@@H](CCCCN)C(=O)N[C@@H](Cc1ccc(O)cc1)C(=O)N[C@@H](CCCCN)C(=O)N1CCC[C@H]1C(=O)N[C@H](CCSC)C(N)=O)[C@@H](C)CC` [Peptide 144] (HELM PEPTIDE1{[CCCC(=O)[*:2]].I.K.Y.K.P.[dM].[am]}$$$$V2.0) the same measures were less than 0.01 µM and more than 10 µM.
Take `CCCC(=O)N[C@H](C(=O)N[C@@H](CCCCN)C(=O)N[C@@H](Cc1ccc(O)cc1)C(=O)N[C@@H](CCCCN)C(=O)N[C@H](C(=O)N[C@H](CCSC)C(N)=O)C(C)C)[C@@H](C)CC` [Peptide 136] (HELM PEPTIDE1{[CCCC(=O)[*:2]].I.K.Y.K.V.[dM].[am]}$$$$V2.0): the EC50 in assay [1] was less than 0.01 µM; in assay [2], more than 10 µM.
`CCCCCCCC(=O)N1CCC[C@H]1C(=O)N[C@@H](CCSC)C(=O)N[C@@H](CCCCN)C(=O)N[C@@H](Cc1ccc(O)cc1)C(=O)N[C@@H](CCCCN)C(=O)N[C@H](C(=O)N[C@H](CCSC)C(N)=O)C(C)C` [Peptide 28] (HELM PEPTIDE1{[CCCCCCCC(=O)[*:2]].P.M.K.Y.K.V.[dM].[am]}$$$$V2.0): the figures for the EC50 in assay [1] and in assay [2] were less than 0.01 µM and more than 10 µM, respectively.

In general, EC50 refers to the concentration at which the effect is half-maximal.

The values above are taken from patent publication US20250361268A1, “NOVEL ANTI-INFLAMMATORY PEPTIDE AND USE THEREOF” (NOVACELL TECHNOLOGY INC., priority 2022, published 2025).
